experiment: LogP by HPLC on reversed phase columns (EEC directive 79/831 Annex V.A8); format: physicochemical; conditions: not given
Procedure: Calibration was done with straight-chain alkan2-ones (with 3 to 16 carbon atoms) with known LogP values (measurement of LogP values using retention times with linear interpolation between successive alkanones). Lambda-max-values were determined using UV-spectra from 200 nm to 400 nm and the peak values of the chromatographic signals.

Compound | Log P[a]
COC(=O)C1(c2nc(C3=NOC(c4c(F)cccc4F)C3)cs2)CCN(C(=O)Cn2nc(C(F)F)cc2C(F)F)CC1 (stereo not shown) [Example I-1] | 3.44
C#CCOc1ccccc1C1CC(c2csc(C3(C(=O)OC)CCN(C(=O)Cn4nc(C(F)F)cc4C(F)F)CC3)n2)=NO1 (stereo not shown) [Example I-4] | 3.61
COC(=O)C1(c2nc(C3=NOC(c4ccccc4)C3)cs2)CCN(C(=O)Cn2nc(C(F)F)cc2C(F)F)CC1 (stereo not shown) [Example I-5] | 3.48
COC(=O)C1(c2nc(C3=NOC(c4ccccc4OS(C)(=O)=O)C3)cs2)CCN(C(=O)Nc2cc(C(F)F)nn2C)CC1 (stereo not shown) [Example I-8] | 2.64
COC(=O)C1(c2nc(C3=NOC(c4c(Cl)cccc4OS(C)(=O)=O)C3)cs2)CCN(C(=O)Nc2cn(C(F)F)nc2C)CC1 (stereo not shown) [Example I-13] | 2.86
COC(=O)C1(c2nc(C3=NOC(c4c(Cl)cccc4OS(C)(=O)=O)C3)cs2)CCN(C(=O)Nc2cn(C)nc2C(F)F)CC1 (stereo not shown) [Example I-14] | 2.73
C#CCOc1ccccc1C1CC(c2csc(C3(C(=O)OC)CCN(C(=O)Nc4cc(C(F)F)nn4C)CC3)n2)=NO1 (stereo not shown) [Example I-15] | 3.00
C#CCOc1ccc(F)c(F)c1C1CC(c2csc(C3(C(=O)OC)CCN(C(=O)Nc4cc(C(F)F)nn4C)CC3)n2)=NO1 (stereo not shown) [Example I-16] | 3.00
C#CCOc1ccccc1C1CC(c2csc(C3(C(=O)OC)CCN(C(=O)Nc4cn(C(F)F)nc4C)CC3)n2)=NO1 (stereo not shown) [Example I-17] | 3.02
C#CCOc1ccc(F)c(F)c1C1CC(c2csc(C3(C(=O)OC)CCN(C(=O)Nc4cn(C(F)F)nc4C)CC3)n2)=NO1 (stereo not shown) [Example I-18] | 3.04
COC(=O)C1(c2nc(C3=NOC(c4ccccc4OS(C)(=O)=O)C3)cs2)CCN(C(=O)Nc2cn(C)nc2C(F)F)CC1 (stereo not shown) [Example I-19] | 2.53
C#CCOc1ccccc1C1CC(c2csc(C3(C(=O)OC)CCN(C(=O)Nc4cn(C)nc4C(F)F)CC3)n2)=NO1 (stereo not shown) [Example I-20] | 2.88
C#CCOc1ccc(F)c(F)c1C1CC(c2csc(C3(C(=O)OC)CCN(C(=O)Nc4cn(C)nc4C(F)F)CC3)n2)=NO1 (stereo not shown) [Example I-21] | 2.88
CCOC(=O)C1(c2nc(C3=NOC(c4c(Cl)cccc4OS(C)(=O)=O)C3)cs2)CCN(C(=O)Cn2nc(C(F)F)cc2C(F)F)CC1 (stereo not shown) [Example I-22] | 3.71
CCOC(=O)C1(c2nc(C3=NOC(c4c(F)cccc4F)C3)cs2)CCN(C(=O)Cn2nc(C(F)F)cc2C(F)F)CC1 (stereo not shown) [Example I-24] | 3.73
CCOC(=O)C1(c2nc(C3=NOC(c4ccccc4)C3)cs2)CCN(C(=O)Cn2nc(C(F)F)cc2C(F)F)CC1 (stereo not shown) [Example I-25] | 3.76
CCOC(=O)C1(c2nc(C3=NOC(c4ccccc4OS(C)(=O)=O)C3)cs2)CCN(C(=O)Cn2nc(C(F)F)cc2C(F)F)CC1 (stereo not shown) [Example I-26] | 3.51
C#CCOc1ccccc1C1CC(c2csc(C3(C(=O)OCC)CCN(C(=O)Cn4nc(C(F)F)cc4C(F)F)CC3)n2)=NO1 (stereo not shown) [Example I-27] | 3.87
C#CCOc1ccc(F)c(F)c1C1CC(c2csc(C3(C(=O)OCC)CCN(C(=O)Cn4nc(C(F)F)cc4C(F)F)CC3)n2)=NO1 (stereo not shown) [Example I-28] | 3.85
CC(C)OC(=O)C1(c2nc(C3=NOC(c4c(Cl)cccc4OS(C)(=O)=O)C3)cs2)CCN(C(=O)Cn2nc(C(F)F)cc2C(F)F)CC1 (stereo not shown) [Example I-29] | 3.96
CC(C)OC(=O)C1(c2nc(C3=NOC(c4c(F)cccc4F)C3)cs2)CCN(C(=O)Cn2nc(C(F)F)cc2C(F)F)CC1 (stereo not shown) [Example I-31] | 3.99
CC(C)OC(=O)C1(c2nc(C3=NOC(c4ccccc4)C3)cs2)CCN(C(=O)Cn2nc(C(F)F)cc2C(F)F)CC1 (stereo not shown) [Example I-32] | 4.04

Compound | Log P[a]
C#CCOc1ccccc1C1CC(c2csc(C3(C(=O)OC(C)C)CCN(C(=O)Cn4nc(C(F)F)cc4C(F)F)CC3)n2)=NO1 (stereo not shown) [Example I-33] | 4.14
C#CCOc1ccc(F)c(F)c1C1CC(c2csc(C3(C(=O)OC(C)C)CCN(C(=O)Cn4nc(C(F)F)cc4C(F)F)CC3)n2)=NO1 (stereo not shown) [Example I-34] | 4.09
CS(=O)(=O)Oc1cccc(Cl)c1C1CC(c2csc(C3(C(=O)OCc4ccccc4)CCN(C(=O)Cn4nc(C(F)F)cc4C(F)F)CC3)n2)=NO1 (stereo not shown) [Example I-35] | 4.19
O=C(Cn1nc(C(F)F)cc1C(F)F)N1CCC(C(=O)OCc2ccccc2)(c2nc(C3=NOC(c4c(F)cccc4F)C3)cs2)CC1 (stereo not shown) [Example I-37] | 4.21
O=C(Cn1nc(C(F)F)cc1C(F)F)N1CCC(C(=O)OCc2ccccc2)(c2nc(C3=NOC(c4ccccc4)C3)cs2)CC1 (stereo not shown) [Example I-38] | 4.26
C#CCOc1ccccc1C1CC(c2csc(C3(C(=O)OCc4ccccc4)CCN(C(=O)Cn4nc(C(F)F)cc4C(F)F)CC3)n2)=NO1 (stereo not shown) [Example I-39] | 4.34
C#CCOc1ccc(F)c(F)c1C1CC(c2csc(C3(C(=O)OCc4ccccc4)CCN(C(=O)Cn4nc(C(F)F)cc4C(F)F)CC3)n2)=NO1 (stereo not shown) [Example I-40] | 4.31
C=CCOC(=O)C1(c2nc(C3=NOC(c4c(Cl)cccc4OS(C)(=O)=O)C3)cs2)CCN(C(=O)Cn2nc(C(F)F)cc2C(F)F)CC1 (stereo not shown) [Example I-41] | 3.80
C=CCOC(=O)C1(c2nc(C3=NOC(c4c(F)cccc4F)C3)cs2)CCN(C(=O)Cn2nc(C(F)F)cc2C(F)F)CC1 (stereo not shown) [Example I-43] | 3.83
C=CCOC(=O)C1(c2nc(C3=NOC(c4ccccc4)C3)cs2)CCN(C(=O)Cn2nc(C(F)F)cc2C(F)F)CC1 (stereo not shown) [Example I-44] | 3.85
C#CCOc1ccccc1C1CC(c2csc(C3(C(=O)OCC=C)CCN(C(=O)Cn4nc(C(F)F)cc4C(F)F)CC3)n2)=NO1 (stereo not shown) [Example I-45] | 3.96
C#CCOc1ccc(F)c(F)c1C1CC(c2csc(C3(C(=O)OCC=C)CCN(C(=O)Cn4nc(C(F)F)cc4C(F)F)CC3)n2)=NO1 (stereo not shown) [Example I-46] | 3.94
CSCCOC(=O)C1(c2nc(C3=NOC(c4c(Cl)cccc4OS(C)(=O)=O)C3)cs2)CCN(C(=O)Cn2nc(C(F)F)cc2C(F)F)CC1 (stereo not shown) [Example I-47] | 3.85
CSCCOC(=O)C1(c2nc(C3=NOC(c4c(F)cccc4F)C3)cs2)CCN(C(=O)Cn2nc(C(F)F)cc2C(F)F)CC1 (stereo not shown) [Example I-49] | 3.87
CSCCOC(=O)C1(c2nc(C3=NOC(c4ccccc4)C3)cs2)CCN(C(=O)Cn2nc(C(F)F)cc2C(F)F)CC1 (stereo not shown) [Example I-50] | 3.89
C#CCOc1ccccc1C1CC(c2csc(C3(C(=O)OCCSC)CCN(C(=O)Cn4nc(C(F)F)cc4C(F)F)CC3)n2)=NO1 (stereo not shown) [Example I-51] | 4.01
C#CCOc1ccc(F)c(F)c1C1CC(c2csc(C3(C(=O)OCCSC)CCN(C(=O)Cn4nc(C(F)F)cc4C(F)F)CC3)n2)=NO1 (stereo not shown) [Example I-52] | 3.99
CS(=O)(=O)Oc1cccc(Cl)c1C1CC(c2csc(C3(C(=O)OC4CCOC4)CCN(C(=O)Cn4nc(C(F)F)cc4C(F)F)CC3)n2)=NO1 (stereo not shown) [Example I-53] | 3.39
O=C(Cn1nc(C(F)F)cc1C(F)F)N1CCC(C(=O)OC2CCOC2)(c2nc(C3=NOC(c4c(F)cccc4F)C3)cs2)CC1 (stereo not shown) [Example I-55] | 3.39
O=C(Cn1nc(C(F)F)cc1C(F)F)N1CCC(C(=O)OC2CCOC2)(c2nc(C3=NOC(c4ccccc4)C3)cs2)CC1 (stereo not shown) [Example I-56] | 3.39
CS(=O)(=O)Oc1ccccc1C1CC(c2csc(C3(C(=O)OC4CCOC4)CCN(C(=O)Cn4nc(C(F)F)cc4C(F)F)CC3)n2)=NO1 (stereo not shown) [Example I-57] | 3.21

same assay, conditions: Table 1, compounds of formula (I); LC-UV, acidic range, 0.1% formic acid in water and acetonitrile as eluent

Compound | Log P[a]
COC(=O)C1(c2nc(C3=NOC(c4ccccc4-c4ccccc4)C3)cs2)CCN(C(=O)Cn2nc(C(F)F)cc2C(F)F)CC1 (stereo not shown) [Example I-2] | 4.36
COC(=O)C1(c2nc(C3=NOC(c4c(Cl)cccc4OS(C)(=O)=O)C3)cs2)CCN(C(=O)Cn2nc(C(F)F)cc2C(F)F)CC1 (stereo not shown) [Example I-6] | 3.44
CCOC(=O)C1(c2nc(C3=NOC(c4ccccc4-c4ccccc4)C3)cs2)CCN(C(=O)Cn2nc(C(F)F)cc2C(F)F)CC1 (stereo not shown) [Example I-23] | 4.64
CC(C)OC(=O)C1(c2nc(C3=NOC(c4ccccc4-c4ccccc4)C3)cs2)CCN(C(=O)Cn2nc(C(F)F)cc2C(F)F)CC1 (stereo not shown) [Example I-30] | 4.92
O=C(Cn1nc(C(F)F)cc1C(F)F)N1CCC(C(=O)OCc2ccccc2)(c2nc(C3=NOC(c4ccccc4-c4ccccc4)C3)cs2)CC1 (stereo not shown) [Example I-36] | 5.08
C=CCOC(=O)C1(c2nc(C3=NOC(c4ccccc4-c4ccccc4)C3)cs2)CCN(C(=O)Cn2nc(C(F)F)cc2C(F)F)CC1 (stereo not shown) [Example I-42] | 4.72
CSCCOC(=O)C1(c2nc(C3=NOC(c4ccccc4-c4ccccc4)C3)cs2)CCN(C(=O)Cn2nc(C(F)F)cc2C(F)F)CC1 (stereo not shown) [Example I-48] | 4.77
O=C(Cn1nc(C(F)F)cc1C(F)F)N1CCC(C(=O)OC2CCOC2)(c2nc(C3=NOC(c4ccccc4-c4ccccc4)C3)cs2)CC1 (stereo not shown) [Example I-54] | 4.31

same assay, conditions: Table 1, compounds of formula (I); LC-UV, acidic range, 0.1% formic acid in water and acetonitrile as eluent; read-out: Log P[a]

Compound | chromatographic logP
COC(=O)C1(c2nc(C3=NOC(c4c(Cl)cccc4OS(C)(=O)=O)C3)cs2)CCN(C(=O)Nc2cc(C(F)F)nn2C)CC1 (stereo not shown) [Example I-12, methyl 4-[4-(5-{2-chloro-6-[(methylsulfonyl)oxy]phenyl}-4,5-dihydro-1,2-oxazol-3-yl)-1,3-thiazol-2-yl]-1-{[3-(difluoromethyl)-1-methyl-1H-pyrazol-5-yl]carbamoyl}piperidine-4-carboxylate] | 2.84

same assay, conditions: pH 2.7; synthesis intermediates in preparation examples; read-out: LogP (pH 2.7)

Compound | chromatographic logP
CC(=O)C1=NOC(c2c(Cl)cccc2OS(C)(=O)=O)C1 (stereo not shown) [2-(3-acetyl-4,5-dihydro-1,2-oxazol-5-yl)-3-chlorophenyl methanesulfonate] | 2.46
CS(=O)(=O)Oc1cccc(Cl)c1C1CC(C(=O)CBr)=NO1 (stereo not shown) [2-[3-(bromoacetyl)-4,5-dihydro-1,2-oxazol-5-yl]-3-chlorophenyl methanesulfonate] | 2.93
CS(=O)(=O)Oc1ccccc1C1CC(C(=O)CCl)=NO1 (stereo not shown) [2-[3-(chloroacetyl)-4,5-dihydro-1,2-oxazol-5-yl]phenyl methanesulfonate] | 2.54

— patent US9717243B2, “Piperidinecarboxylic acid derivatives as fungicides” (priority 2013, dated 2017)
